Measurements as given in US4001223A, “Adamantane-piperazine derivatives” (Idemitsu Kosan Co., Ltd., priority 1975, dated 1977).
“Also recorded” adds a separate entry of the source.

Experiments:
Hypotensive action = format: in vivo; details: for dose showing hypotensive action: in vivo
[1] = Effect on muscular blood flow in cats; format: in vivo; details: cats weighing about 3 kg
From the text: (§1) The action on cerebral blood flow and muscular blood flow was examined with cats weighing about 3 kg.

[2] = tested on: Small intestine excised from guinea-pigs; assay: Inhibition of acetylcholine-induced contraction of isolated smooth muscle (small intestine excised from guinea-pigs); details: contracting substance Acethylcholine 5.43×10^-4 g/ml; effective concentration 8.75×10^-6 g/ml
[3] = Stability in aqueous solution of tartaric acid; format: physicochemical
Description: After heating a 0.25 weight percent aqueous solution of the new compound N-(1-adamantyl methyl)-N'-cinnamyl piperazine prepared by using 2 times mol of tartaric acid based on 1 mol of this compound, the solution was allowed to cool to a room temperature (about 20° C). Then, the pH value was adjusted to 8-9 with 1/10 N aqueous solution of sodium hydroxide.

in vivo = details: for LD50: mouse, in vivo
[4] = tested on: Vessels excised from guinea-pigs; assay: Inhibition of adrenalin-induced contraction of isolated smooth muscle (vessels excised from guinea-pigs); details: contracting substance Adrenalin 2.86×10^-6 g/ml; effective concentration 1×10^-5 g/ml
[5] = tested on: Small intestine excised from guinea-pigs; assay: Inhibition of histamine-induced contraction of isolated smooth muscle (small intestine excised from guinea-pigs); details: contracting substance Histamine 1.00×10^-7 g/ml; effective concentration 1×10^-4 g/ml
[6] = Solubility in aqueous solution of tartaric acid (aptitude test as an injection); format: physicochemical; details: 0.25 weight percent
Description: For the purpose of examining the solubility of the new compound N-(1-adamantyl methyl)-N'-cinnamyl piperazine in an aqueous solution of tartaric acid, the aqueous solutions in which 2, 4, 6 and 8 times molar of tartaric acid based on 1 mol of the new compound were contained were prepared and the compound was added so that its concentration should be 0.25 weight percent to each aqueous solution. Each aqueous solution was heated to 80° C and allowed to cool to a room temperature (about 20° C), then the solubility was evaluated. […] In addition, the pH value of 0.25 weight percent aqueous solution of the compound prepared by using 2 times mol of tartaric acid based on 1 molar of the compound was 3.10 and when an alkali was added to the aqueous solution, crystals began to separate at pH 3.80.

[7] = tested on: Small intestine excised from guinea-pigs; assay: Inhibition of BaCl2-induced contraction of isolated smooth muscle (small intestine excised from guinea-pigs); details: contracting substance BaCl2 2.00×10^-3 g/ml; effective concentration 1×10^-4 g/ml
[8] = Effect on cerebral blood flow in cats; format: in vivo; details: cats weighing about 3 kg
From the text: as §1

isolated smooth muscle = assay: Effect on contraction of isolated smooth muscle, overall; design: species or system guinea-pigs
[9] = 0.25 weight percent, 2 times mol tartaric acid, heated, cooled, pH adjusted to 8-9, room temperature for 7 days

C(=C\c1ccccc1)/CN1CCN(C(c2ccccc2)c2ccccc2)CC1 [Cinnarizine, reference compound]
dose showing hypotensive action (Hypotensive action): 0.5 mg/kg

C(=C\c1ccccc1)/CN1CCN(CC23CC4CC(CC(C4)C2)C3)CC1 [N-(1-adamantylmethyl)-N'-cinnamyl piperazine]
blood flow of gastrocnemius muscle [1]: clearly increased blood flow of gastrocnemius muscle
action on blood flow of gastrocnemius muscle compared with Cinnarizine ([1]; versus Cinnarizine): more significant than that of Cinnarizine
Inhibitory rate [2]: 25.0%
change in infrared absorption spectrum and nuclear magnetic resonance spectrum [3, 9]: No change
stability by thin layer chromatography [3, 9]: unaffected
stability against heat, alkali and acid ([3]; general statement): good stability against heat, alkali and acid; also recorded: high stability against heat, alkali and acid
stability in an aqueous solution of tartaric acid ([3]; overall conclusion): exist stably in an aqueous solution of tartaric acid
toxicity (in vivo; general statement): low toxicity; also recorded: very low toxicity compared with conventional cerebral vasodilators
LD50 (in vivo; iv): 78.8 mg/kg
LD50 (in vivo; po): > 10000 mg/kg
Inhibitory rate [4]: 3.10%
side effects such as an excessive hypotension (Hypotensive action; general statement): little side effects such as an excessive hypotension
dose showing hypotensive action (Hypotensive action): > 5 mg/kg
hypotensive action compared with Cinnarizine (Hypotensive action; versus Cinnarizine): clearly weaker than that of Cinnarizine
Inhibitory rate [5]: 95.0%
pH value of aqueous solution ([6]; 2 times mol of tartaric acid): 3.10
pH at which crystals began to separate ([6]; 2 times mol of tartaric acid, alkali added): 3.80
solubility ([6]; aqueous tartaric acid, 2, 4, 6 and 8 times molar, heated to 80° C, cooled to about 20° C): soluble in all of the above aqueous solutions of tartaric acid
Inhibitory rate [7]: 77.23%
blood flow of cerebral cortex ([8]; 1 mg/kg): clearly increased blood flow of cerebral cortex
action on blood flow of cerebral cortex compared with Cinnarizine ([8]; versus Cinnarizine 1 mg/kg): more significant than that induced by Cinnarizine
smooth muscle relaxing action (isolated smooth muscle): recognized to possess smooth muscle relaxing action
